Test results reported in PubChem BioAssay AID624265 (Broad Institute, 2012).
The source made the active and inactive calls.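 The calls were made as follows: active = at a dose no more than twice the top valid tested dose, the fitted curve drops below -35% activity change; inactive = the rest, rising-direction activity included.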

Tested on: NIH3T3 viability, CellTiter-Glo ATP luminescence
Assay: cytotoxicity in NIH3T3 fibroblasts, dose response, cytotoxicity control for HSP40 inhibitor project, cell-based, CellTiter-Glo luminescence, cherry-pick, set 2 (AID 624265);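 also: cells exposed to compound for 48 hours before the ATP read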;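 as to activity change, negative = toxicity: 0% = median neutral control signal and -100% = no luminescence left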
Details: not given

Structure (SMILES)	AC35 [µM]
Cc1ccc(S(=O)(=O)Nc2ccc(O)c3cccnc23)cc1	33
CCCCNc1c(-c2cccc(-c3ccc(OC)cc3)c2)nc2ccc(C)cn12	22.7
CNc1ccc2oc(C[C@H]3O[C@@]4(CC[C@H]3C)O[C@H]([C@H](C)C(=O)c3ccc[nH]3)[C@H](C)C[C@H]4C)nc2c1C(=O)O	11.1
CCOC(=O)c1cc2c(=Cc3ccc(N(C)C)cc3)c3ccccc3n2[n+]1C	29
CN(C)c1nc(-c2ccccn2)nnc1-c1ccccc1	43.5
O=C1c2cc(F)ccc2-n2c1nc1ccccc1c2=O	50
COc1cccc(/C=N/Nc2ncnc3scc(-c4ccccc4)c23)c1O	48.4
Cc1ccc(Cl)cc1NC1=C/C(=N\S(=O)(=O)c2cccs2)c2ccccc2C1=O	8.07
Cc1oc2c(c1C(=O)c1ccccc1)C(=O)C(=O)c1ccccc1-2	8.43
CC(=O)C1=C(c2ccc(Br)cc2)C(=O)c2ccccc2C1=O	26.2
CC(=O)Oc1ccc(OC(C)=O)c(SCCCCCCl)c1	42.6
CCCCCCCCCCOC(=O)Cn1c(COc2ccccc2OC)[n+](C)c2ccccc21	26.7
O=C(Nc1nc(-c2ccccn2)cs1)c1ccc(Br)s1	27.1
Cc1cccc2sc(NNC(=O)c3ccc(S(=O)(=O)N4CCCC(C)C4)cc3)nc12 (stereo not given)	40.5
O=[N+]([O-])c1ccc(Sc2cccc[n+]2[O-])c2nonc12	4.46
CC1CCN(c2nc(-c3ccncc3)nc3ccccc23)CC1	49.6
Oc1cccc2ccc(Nc3ccccn3)nc12	14.2
CC1=CC(=O)C=C(C)C1=NOS(=O)(=O)c1ccccc1	27.6
COc1ccc(O)c(C(=O)CC(=O)c2ccc(F)cc2)c1	52.3
CC[n+]1c(/C=C/C=C/c2ccc(N(C)C)cc2)sc2ccccc21	24.4

Tested on: not listed separately
Assay: as above
Details: NIH3T3 viability, CellTiter-Glo ATP luminescence; at 50 µM (top of the series)

Structure (SMILES)	activity change, negative = toxicity
CCn1c(CNc2ccc(Cl)cc2)nnc1SCc1ccc(Cl)cc1	12.6% (inactive)
CN1CCN(C(=O)c2cc(COc3ccc(F)cc3Cl)on2)CC1c1ccccc1 (stereo not given)	14.2% (inactive)
COC(=O)c1cccc2c1-c1ccccc1/C2=N/O	28.2% (inactive)
Cc1ccc(NC(=S)c2nc3ccccc3[nH]2)c(C)c1	-2.47% (inactive)
Cc1ccc(NS(=O)(=O)c2ccc(N3CCN(c4ccc(O)cc4)CC3)c([N+](=O)[O-])c2)c(C)c1	24.6% (inactive)
CC(C)CSc1n[nH]c(=S)s1	9% (inactive)
Cc1ccc2c(C)c3ccc4ccccc4c3c[n+]2c1	11.9% (inactive)
Cc1nn(CCC#N)c(N)c1C1(O)C(=O)Nc2c(Cl)cc(Cl)cc21 (stereo not given)	-6.69% (inactive)
O=C(c1ccc(Cl)cc1)N1CCN(c2ccc(F)cc2)CC1	5.81% (inactive)
COc1ccc2[nH]c(=O)c(CN(Cc3cccnc3)C(=O)Nc3ccccc3)cc2c1	-11.7% (inactive)
COc1ccc(/C=N/Nc2cc(C)nc(-n3nc(C)cc3C)n2)cc1	-9.51% (inactive)
O=c1c2ccccc2nc(-c2cccc(Cl)c2)n1O	4.83% (inactive)
O=C(Nc1ccc(Br)c(C(F)(F)F)c1)c1ccccc1	-9.98% (inactive)
CC(C)NC(=O)NC(=O)COC(=O)c1ccc([N+](=O)[O-])cc1Cl	-6.58% (inactive)
CCC(Oc1ccc(Br)cc1Cl)C(=O)Nc1nnc(C2CC2)s1 (stereo not given)	5.54% (inactive)
Cc1ccc(Nc2cc(C)nn2-c2nc(C)cc(C)n2)cc1	-3.61% (inactive)
CCCC(C)Sc1nc2c([nH]1)c(=S)n(C)c(=O)n2C (stereo not given)	0.769% (inactive)
CCCCCCn1c(=O)c(C(=O)Nc2ncccc2C)c(O)c2ccccc21	6.84% (inactive)
O=C(c1ccccc1)c1ccc(Cn2cc(-c3ccccc3)nn2)cc1	5.39% (inactive)
O=S(=O)(Nc1ccccc1)c1ccc(Oc2ncc(C(F)(F)F)cc2Cl)cc1	13% (inactive)
C=CCN(CC=C)C(=S)NC(=O)c1ccc(C)c(Br)c1	19.7% (inactive)
COc1ccccc1C1CCN(C(=O)c2ccc(Cl)cc2)CC1	6.31% (inactive)
CCc1ccc(CN(C)C(=O)c2cc(COc3cccc(C(F)(F)F)c3)on2)nc1	5.53% (inactive)
CCc1ccc(OCc2n[nH]c(=S)n2Cc2ccccc2)cc1	3.81% (inactive)
O=c1c(CO)cc(CO)cc(CO)c1O	-3.78% (inactive)

Structure (SMILES)	activity change, negative = toxicity
O=C(CN1CC[n+]2c(-c3cccs3)csc21)c1ccc(-c2ccccc2)cc1	28% (inactive)
CC(C)(C)n1nc(Cc2cccc3ccccc23)c2c(N)ncnc21	9.94% (inactive)
COc1cccc(CC(=O)Nc2ccc3nc(C)sc3c2)c1	14.6% (inactive)
CCOC(=O)c1ccc(NC(=S)N(Cc2cccnc2)Cc2ccco2)cc1	2.56% (inactive)
CCN(CC)c1ccc(/C=N/NC(=O)c2c(Cl)cnn2C)c(O)c1	-24.5% (inactive)
CC(C)(C)C(O)C(Cc1ccccc1Cl)n1cncn1 (stereo not given)	-1.54% (inactive)
O=C1OCC(CO)(CO)N=C1NNc1ccc(Cl)c(Cl)c1	2.06% (inactive)
Nc1cc2c3ccccc3ccc2c2ccccc12	-1.86% (inactive)
c1ccc(Cn2cc(-c3cccnc3)cn2)cc1	-0.362% (inactive)
CCC(C)Sc1cccc(-c2nc3ccccn3c2NCc2ccccc2)c1 (stereo not given)	-15.9% (inactive)
O=C(NOC(=O)c1ccccc1)c1ccccc1	-12.1% (inactive)
CCCCc1ccc(-n2c(Cc3cccs3)n[nH]c2=S)cc1	-7.72% (inactive)
C[C@@]12CCC3[C@@](CCC4[C@@]3(C)CCC[C@@]4(C)C(=O)NCc3ccccc3)(CC1=O)C2 (stereo not given in full)	2.89% (inactive)
C=C(C)COc1ccc(-c2[nH]ncc2-c2ccc(Br)cc2)c(O)c1	1.03% (inactive)
Cc1nc2ccc(C(C(F)(F)F)(C(F)(F)F)C(F)(F)F)cc2[nH]1	3.14% (inactive)
O=C(c1ccccc1)N1C(=O)C(c2ccccc2)Oc2ccccc21 (stereo not given)	5.11% (inactive)
CCCOc1ccc2ccccc2c1/C=C1\SC(=O)NC1=O	6.17% (inactive)
COc1ccc(-c2cc(C(=O)N3CCN(c4ccccc4F)CC3)c3ccccc3n2)c(OC)c1	-9.73% (inactive)
Cc1ccc2oc(-c3ccccc3)c(C(=O)O)c(=O)c2c1	-13.9% (inactive)
COc1ccc(N=N/C(=C\O)C(=O)c2cccs2)cc1	14.1% (inactive)
COc1ccc(C(=O)On2c(-c3ccc(Br)cc3)nc3ccccc3c2=O)cc1	8% (inactive)
COc1cc(/C=N/O)cc(Br)c1OCc1cccc(Cl)c1	3.56% (inactive)
Cc1cc(C)c(C(=O)CC(=O)c2cccnc2)c(C)c1	8.73% (inactive)
O=S(=O)(c1ccc(Cl)cc1)N1CCC2(CC1)OCCN2S(=O)(=O)c1cccs1	-0.748% (inactive)
O=C(OCC(=O)C12CC3CC(CC(C3)C1)C2)c1ccc(O)cc1	0.345% (inactive)

Structure (SMILES)	activity change, negative = toxicity
c1ccc(CSc2ccc(-c3ccccn3)nn2)nc1	-13% (inactive)
COc1cnc(-c2ccccn2)nc1Sc1ccccc1	9.22% (inactive)
[O-][n+]1cccc2c(Br)cc(Br)c(O)c21	-12.1% (inactive)
COc1ccc(N(C)S(=O)(=O)c2ccc(Cl)c(C(=O)NNC(=O)c3ccccc3O)c2)cc1	3.26% (inactive)
COc1cnc(-c2ccccn2)nc1Sc1ccc(C)cc1	-14.4% (inactive)
CCCOc1ccc(S(=O)(=O)n2cc(F)c(=O)[nH]c2=O)cc1	10.7% (inactive)
Cc1ccc(O)c(-c2cc(-c3ccccc3C)[nH]n2)c1	-5.19% (inactive)
OCCN(CCO)c1cc2c3ccccc3ccc2c2ccccc12	-14.3% (inactive)
Clc1ccccc1C(c1ccccc1)(c1ccccc1)n1ccnc1	10.3% (inactive)
C=CCn1c(-c2cc(-c3ccc(C)cc3)nc3ccccc23)n[nH]c1=S	15.5% (inactive)
CCn1c2ccc(C)cc2c2nc3cc(C(=O)O)ccc3nc21	-4.25% (inactive)
COc1ccc(Sc2nc(-c3ccccn3)ncc2OC)cc1	5.95% (inactive)
CN(C)c1ccc(C=c2c3cc(O)ccc3n3c2cc(-c2ccccc2)[n+]3C)cc1	3.47% (inactive)
CN(c1ccccc1)c1nc(N2CCCC2)nc(-n2ccnc2)n1	11.2% (inactive)
Cc1nc(SCc2ccc(OCCC(C)C)cc2)n[nH]1	3.46% (inactive)
CCCn1c(=O)c(C(=O)NCc2ccc(OC)c(OC)c2)c(O)c2ccccc21	30.8% (inactive)
CCCCCOc1ccc(CSc2n[nH]c(C)n2)cc1	5.34% (inactive)
O=C(/C(=N/N=C/c1ccc(O)c(O)c1O)c1ccccc1)c1ccccc1	-5.73% (inactive)
CCC(C)c1ccc(NC(=S)NCCn2cc(Br)cn2)cc1 (stereo not given)	16.1% (inactive)
CN(C)c1nc(SCc2ccc(Cl)cc2)nc2c1CCCC2	9.05% (inactive)
C=CCc1ccc(O)c(-c2ccc(O)c(CC=C)c2)c1	9.45% (inactive)
FC(F)(F)c1cccc(N2CCc3cn[nH]c32)c1	-9.14% (inactive)
COC(=O)COC(=O)c1ccccc1NC(=O)c1ccccc1	-14.7% (inactive)
CCOC(=O)c1ccc(N2C(=O)CC(N3CCC(O)(c4ccc(Cl)cc4)CC3)C2=O)cc1 (stereo not given)	-0.824% (inactive)
O/N=C(\c1ccc(Cl)cc1)c1cc2ccccc2o1	-9.72% (inactive)
